Entries after “also recorded” stand apart in the source; their conditions may differ.
Legend:
[1] = test system: streptozotocin-induced type 1 diabetic rats; assay: Blood glucose (Accu-Chek); type: in vivo, rat (male Sprague-Dawley); conditions: STZ-diabetic rats; for effect of treatment on blood glucose level: one month of treatment, N = 24, P < .05 significant
Description: (§1) Groups D, DI, DE, DA, DIA and DEA were induced to type 1 diabetes mellitus by a single intravenous injection of streptozotocin (STZ; 85 mg/kg bw) (Sigma Chemical Co., Saint Louis, Mo, USA) in saline acidified to pH 4.5 with 0.1 M citrate buffer. Three days later, nonfasting blood glucose level was measured using Accu-Chek (Accu-Chek Instant Test; Roche Diagnostics GmbH, Mannheim, Germany); a level of ≥250 mg/dL confirmed type 1 diabetes mellitus.
(§2) All the animals were weighed weekly, and blood glucose levels were determined using Accu-Chek (Accu-Chek instant test, Roche Diagnostics GmbH, Mannheim, Germany) weekly during one month of treatment.

[2] = Plasma active GLP-1 (ELISA); type: in vivo, rat (male Sprague-Dawley); conditions: STZ-diabetic rats; active GLP-1 (7–36 and 7–37) by ELISA over one month, N = 6
Description: as §1
Rats were anesthetized, and blood was collected from the sublingual vein on days 1, 7, 14, 21, and 28 of the treatment period, at a constant time range of 9 to 10 AM. […] A relative fluorescent unit (RFU) curve was plotted using these standards (Figure 1).

[3] = Body weight after one month of treatment; type: in vivo, rat (male Sprague-Dawley); conditions: STZ-diabetic rats, N = 24
Description: as §1, §2

[4] = molecular target: T1, GLP-1 receptor at the cardiomyocytes (Rattus norvegicus, UniProt P32301); assay: Perfusion of rat heart with ^125I-GLP-1: binding at the cardiomyocytes (CHAPS-treated); design: species or system rat (male Sprague-Dawley); conditions: STZ-diabetic rats, one month of treatment, compared with diabetic (D) and normal (N)
T1 construct: from tissue; host or cells: in situ perfused heart of male Sprague-Dawley rats (normal, streptozotocin-diabetic and treated groups)
T1 sequence (P32301 22-463): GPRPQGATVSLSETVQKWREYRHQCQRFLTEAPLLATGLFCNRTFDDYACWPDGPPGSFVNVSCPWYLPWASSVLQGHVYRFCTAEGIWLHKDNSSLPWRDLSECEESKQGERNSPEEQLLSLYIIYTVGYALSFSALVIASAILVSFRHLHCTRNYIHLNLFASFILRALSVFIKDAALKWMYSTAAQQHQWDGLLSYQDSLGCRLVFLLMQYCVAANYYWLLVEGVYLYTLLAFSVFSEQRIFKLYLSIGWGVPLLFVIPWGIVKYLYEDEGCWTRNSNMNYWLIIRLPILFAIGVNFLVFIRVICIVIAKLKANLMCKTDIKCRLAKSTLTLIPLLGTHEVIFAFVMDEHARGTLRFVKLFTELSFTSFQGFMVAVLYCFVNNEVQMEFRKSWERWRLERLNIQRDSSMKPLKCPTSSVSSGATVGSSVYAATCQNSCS
Description: (§3) In addition, the left and right lungs were tied in order to block the blood flow to them and to other organs. The aorta was slightly cut, and a polyethylene catheter was inserted (from cephalad to caudad) into its lumen to reach the aortic valve. The right atrium was punctured, and another catheter was inserted to carry out the perfusate. Both catheters were secured with a suture. A 50 mL syringe filled with heparinized Ringer-Lock buffer containing 20 meq/L K ^+, oxygenated with 95% O2, 5% CO2 at 37°C linked to an infusion pump was attached to the inlet. This solution cleared the heart from blood and clots for 15 minutes; infusion of a Ringer-Lock buffer solution for another 15 minutes cleared the heart from heparin. These steps were followed by the perfusion of a buffer containing 8.25 × 10^−4 nM/L [^125I] […] The perfusate was collected for 20 minutes at specific time intervals (between 0-1, 1-2, 2-3, 3-4, 4-5, 5-6, 6-7, 7-8, 8-9, 9-10, 10–12, 12–15, 15–20 minutes); after each collection, 500 μL of the sample was put in a liquid scintillation vial containing 4 mL of Ecolume scintillation cocktail, which was later assayed for radioactivity by a liquid scintillation analyzer. […]

[5] = test system: nitric oxide synthase production by endothelial cells; conditions: ref 28 (Dong et al.); cited from earlier work
From the text: (§4) Furthermore, this effect was eliminated upon the removal of the endothelial lining.

type 2 diabetic mice = conditions: cited from earlier work
[6] = molecular target: T2, GLP-1 receptor at the coronary endothelium (Rattus norvegicus, UniProt P32301); assay: Perfusion of rat heart with ^125I-GLP-1: binding at the coronary endothelium (buffer alone, CHAPS-untreated); design: species or system rat (male Sprague-Dawley)
T2 construct: from tissue; host or cells: in situ perfused heart of male Sprague-Dawley rats (normal, streptozotocin-diabetic and treated groups)
T2 sequence (P32301 22-463): T1 sequence (P32301 22-463)
Description: as §3

[7] = test system: left ventricular hypertrophy; conditions: compared with angiotensin receptor blockers; cited from earlier work
From the text: Diabetes mellitus currently affects more than 170 million individuals worldwide. Other than hyperglycemia, diabetes mellitus can cause a 2-3-fold increase in the occurrence of cardiovascular disease (CVD). […] Receptor signaling on the pancreas leads to enhanced insulin biosynth ...

[8] = cited from earlier work
From the text: as §4

[9] = test system: GLP-1 receptors on the human coronary endothelial cells; design: method as in earlier work; conditions: ref 27 (Nystrom et al.); cited from earlier work
[10] = in vivo; cited from earlier work
From the text: Incretin mimetics have been introduced in the market to be used as therapies for diabetes mellitus [[2 ...

[11] = in vivo; cited from earlier work; remark: listed apart in the source
From the text: The intravenous injection of streptozotocin (STZ)—a glucosamine-nitrosourea antibiotic with structural similarity to glucose that is readily taken up by the pancreatic β cells—causes β cells toxicity and ultimately necrosis, leading to deficiency in insulin secretion. The use of Streptozotocin to induce type 1 diabetes in rats is advantageous, because it is easy, fast, and the effect of diabetes on the heart can be evaluated. Our aim was to assess the long-term effects of treatments on ...

Compound: Exendin-4: GLP-1 analogue, GLP-1 receptor agonist (Sigma); group DE, 0.03 μg/kg ip bid
- effect of treatment on blood glucose level [1]: Although not significant, Exendin-4 treatment showed slight improvement
- effect of treatment on plasma GLP-1 level [2]: normalized
- body weight vs diabetic untreated [3]: significant increase in their body weight

Compound: COCCCOc1cc(C[C@@H](C[C@H](N)[C@@H](O)C[C@H](C(=O)NCC(C)(C)C(N)=O)C(C)C)C(C)C)ccc1OC [Aliskiren]
- fraction of treated rats with normal blood glucose levels ([1]; Aliskiren 50 mg/kg oral qd, after one month): 12.5%
- effect of treatment on blood glucose level [1]: significantly decreased blood glucose levels compared to the untreated
- effect of treatment on GLP-1 binding affinity (τ) at the cardiomyocytes [4]: did not lower the affinity
- nitric oxide synthase production by endothelial cells [5]: significantly restored
- effect of treatment on plasma GLP-1 level [2]: normalized
- insulin sensitivity (type 2 diabetic mice): improves insulin sensitivity
- effect of treatment on GLP-1 binding affinity (τ) at the coronary endothelium ([6]; STZ-diabetic rats, one month of treatment, compared with diabetic (D) and normal (N)): did not alter τ from diabetics in the CE; also recorded: no significant change in its affinity; also recorded: did not ameliorate it
- effect of treatment on K d of GLP-1 at the coronary endothelium ([6]; treated STZ-diabetic rats compared to the normal): extremely significant increase in K d constant
- left ventricular hypertrophy [7]: reduce left ventricular hypertrophy as efficiently as angiotensin receptor blockers (ARBs)

Compound: glucagon-like peptide-1 [GLP-1]
- vasodilation on GLP-1 infusion [8]: induce vasodilation
- vasodilation on binding to GLP-1 receptors [9]: induce vasodilation
- physiologic half-life [10]: very short physiologic half-life

Compound: Insulin glargine
- duration of action [11]: < 24 h
